Measured values reported in patent US20250041278A1, “TLR8 AGONIST FOR MODULATING IMMUNE RESPONSE” (The Children's Medical Center Corporation, priority 2021, published 2025).

Experiments:
Format in all cases: cell-based
hTLR8 = molecular target: T1, hTLR8 (Homo sapiens, UniProt Q9NR97); assay: HEK-293 hTLR8 NF-κB/AP-1 SEAP reporter assay
T1 construct: host or cells: HEK-293 reporter cells
T1 sequence (Q9NR97 27-1041): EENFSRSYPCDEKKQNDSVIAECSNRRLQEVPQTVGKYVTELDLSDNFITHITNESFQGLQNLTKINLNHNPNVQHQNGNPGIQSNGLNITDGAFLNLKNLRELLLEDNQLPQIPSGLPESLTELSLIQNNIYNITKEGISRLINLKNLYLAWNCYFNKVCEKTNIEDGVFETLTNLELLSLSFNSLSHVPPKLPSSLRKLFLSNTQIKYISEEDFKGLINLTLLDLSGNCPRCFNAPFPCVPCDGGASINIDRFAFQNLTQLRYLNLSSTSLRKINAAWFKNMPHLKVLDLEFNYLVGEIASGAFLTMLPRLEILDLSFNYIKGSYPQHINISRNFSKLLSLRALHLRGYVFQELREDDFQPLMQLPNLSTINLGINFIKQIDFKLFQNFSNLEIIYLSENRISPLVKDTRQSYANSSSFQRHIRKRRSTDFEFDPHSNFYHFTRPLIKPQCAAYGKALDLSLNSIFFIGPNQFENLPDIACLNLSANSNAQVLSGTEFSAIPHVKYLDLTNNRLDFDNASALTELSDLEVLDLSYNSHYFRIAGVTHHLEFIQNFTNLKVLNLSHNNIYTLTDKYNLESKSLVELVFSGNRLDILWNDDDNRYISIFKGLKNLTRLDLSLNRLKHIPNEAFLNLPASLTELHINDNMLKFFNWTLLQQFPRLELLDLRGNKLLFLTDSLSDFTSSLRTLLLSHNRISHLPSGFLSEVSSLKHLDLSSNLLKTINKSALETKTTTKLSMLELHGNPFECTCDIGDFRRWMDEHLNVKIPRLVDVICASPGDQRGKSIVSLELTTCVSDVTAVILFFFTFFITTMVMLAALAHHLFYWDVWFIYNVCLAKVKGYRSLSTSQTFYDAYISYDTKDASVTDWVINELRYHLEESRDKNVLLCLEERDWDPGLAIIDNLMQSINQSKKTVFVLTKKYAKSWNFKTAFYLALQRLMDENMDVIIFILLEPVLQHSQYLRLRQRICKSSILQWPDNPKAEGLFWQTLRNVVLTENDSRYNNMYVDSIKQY
Description: FIGS. 3A-3E. PVP-179 is a TLR8 agonist. FIG. 3A: PVP-179 was sent to InvivoGen for PRR ligand screening service. Various cells lines were utilized to screen for PVP-179-induced ([…]) activation of TLRs, NOD1/2, RIG-I/MDA-5, Dectin-1 or Mincle receptor. The heat-map depicts percentage activity compared to the positive control for each receptor. FIG. 3B: PVP-179 induced activity (% activity compared to the positive control: CL075 at 1 μg/mL) in HEK-293 cells specifically expressing hTLR8. In brief, these cells have an NF-κB/AP-1-inducible secreted embryonic alkaline phosphatase (SEAP) reporter gene which allows monitoring of signaling via TLR8. After incubation for 16-24 hours, supernatant harvested from the cells is mixed with media containing SEAP-substrate and the optical density (OD) is measured at 650 nm using a spectrophotometer. FIG. 3C: As in FIG. 3B, HEK cells specifically expressing hTLR2, hTLR7, or hTLR8, in addition to the HEK-Null cell line carrying only the reporter gene, were stimulated with the indicated concentrations of PVP-179. […] PVP-179 activity is expressed as a percentage of NF-κB induced in the cells stimulated with TNF (positive control for each cell line). […] The supernatants were harvested after 20-24 hours and SEAP production (to assess NF-κB activity) was measured using QUANTIBlue assay. […]

[1] = tested on: human adult and elderly PBMCs; assay: 14-multiplex cytokine assay in PBMC supernatants
Excerpt: FIGS. 1A-1D. Discovery of PVP-179 in a human PBMC high-throughput screen. FIG. 1A: A graphical overview depicting screen approach. From a high-throughput screen previously conducted, 310 molecules were identified to be activators of either THP-1 cells (monocyte cell line) or primary human adult peripheral blood mononuclear cells (PBMCs). These 310 molecules were assembled into a stimulation plate and then applied to the PBMCs of 4 elderly donors (cultured with 10% autologous plasma). […] Z scores were averaged across all four elderly donors. The Z score and chemical structure for PVP-179 are indicated. FIG. 1C: Human adult or elderly PBMCs (cultured with 10% autologous plasma) were stimulated with PVP-179 in a two-point concentration titration manner. After 18 hours of incubation, supernatant was processed for ELISA-based measurement of TNF production. N=4 donors. FIG. 1D: As in FIG. 1C, the supernatants were collected, and 14 cytokines were measured by multiplex assay. […] N=4 donors each.
The activity of PVP-179 was confirmed in a 96-well format in both human adult and elderly PBMCs.

[2] = tested on: murine bone marrow-derived dendritic cells; assay: mTNF and mIL-6 ELISA in murine bone-marrow-derived dendritic cells; details: murine BMDCs, 18 hours
Description: FIGS. 4A-4D. PVP-179 activates human macrophages and dendritic cells. FIGS. 4A-4B: Murine mononuclear cells were isolated from bone marrow and induced differentiation into dendritic cells (with GM-CSF and IL-4). After 5 days of culturing, these bone-marrow-derived dendritic cells (BMDCs) were stimulated with PVP-179 or MPLA for 18 hours at indicated concentrations. The supernatants were analyzed via ELISA where each dot in the graph represents the mean production of mTNF (FIG. 4A) and mIL-6 (FIG. 4B). N=6 for PVP-179, N=3 for MPLA. Two-way Anova was performed to determine statistical significance. The comparisons shown are compared to control group (0 M PVP-179). FIGS. 4C-4D: PBMCs were isolated from blood of adult human donors. CD14+ monocytes were specifically isolated from the PBMCs and were then cultured in 10% autologous plasma and induced to differentiate into macrophages with M-CSF (FIG. 4C), or dendritic cells with GM-CSF and IL-4 (FIG. 4D). After 5 days, cells were harvested from each differentiated cell type (macrophages: Mφ; dendritic cells: MoDCs) and a 96-well plate was setup with 100,000 cells/well. Cells were then stimulated with indicated concentrations of PVP-179 or R848 (33 μM) or LPS (100 ng/mL). After 20-24 hours of incubation, supernatants were harvested and applied to TNF ELISA. N=2 donors.

CCCCn1c(/N=C/c2nc3ccccc3n2C)nc2ccccc21 [PVP-179]
NF-κB activity in HEK cells expressing hTLR8 (hTLR8; 20-24 hours): concentration-dependent activity
activity in HEK-hTLR8 cells after TLR8 inhibitor CUCPT-9a (hTLR8; CUCPT-9a 1 μM, PVP-179 at 33 μM or above): significantly blocked
innate immune response (cytokine responses), elder vs younger adult leukocytes ([1]; 14-multiplex assay): greater innate immune response in elder leukocytes than in younger adult controls
proinflammatory cytokine and chemokine induction (TNF, IL-6, IL-8, IL-10, IL-12 p40, IL-12 p70, IP-10, CCL5, CCL3, MCP1, GM-CSF, IFN-γ, IFN-α2, IL1-β) ([1]; similarly to R848 at 25 μM): titration-dependent concentration of proinflammatory cytokines
cytokine inducing activity (mTNF, mIL-6) [2]: minimal cytokine inducing activity
